Measured values from patent US20200369626A1 (Washington University, priority 2019, published 2020).
Where two headings read alike, the source gives them in different places.

Key:
[1] = tested on: Experimental autoimmune encephalomyelitis (EAE); assay: EAE clinical score in immunized mice, osmotic pump treatment; type: in vivo, female SJL/J mice; details: from day 9 postimmunization
S1PR2 = biological target: T1, S1PR2 (Homo sapiens, UniProt O95136); assay: competitive [^32P]S1P binding assay on cell membranes, S1PR2
T1 construct: purchased
Method: The test compounds were dissolved in DMSO and diluted into test samples with increasing concentrations with assay buffer. Commercial cell membranes expressing recombinant human S1PR were diluted with assay buffer to make a 20-40 μg/mL of solution. […] The plate was incubated for 60 min at room temperature with shaking and terminated by collecting the membranes onto 96-well glass fiber (GF/B) filtration plates (Millipore, Billerica, Mass.). Each filter was washed with 200 μL of assay buffer for a total of five washes. […] The IC50 values were fitted from GraphPad Prism 6 using one site Nonlinear Regression.

S1PR1 = biological target: T2, S1PR1 (Homo sapiens, UniProt P21453); assay: competitive [^32P]S1P binding assay on cell membranes, S1PR1
T2 construct: purchased
Method: (§1) The test compounds were dissolved in DMSO and diluted into test samples with increasing concentrations with assay buffer. Commercial cell membranes expressing recombinant human S1PR were diluted with assay buffer to make a 20-40 μg/mL of solution. […] The plate was incubated for 60 min at room temperature with shaking and terminated by collecting the membranes onto 96-well glass fiber (GF/B) filtration plates (Millipore, Billerica, Mass.). Each filter was washed with 200 μL of assay buffer for a total of five washes. The filter bound radionuclide was measured by a Beckman LS 3801 scintillation counter using Cherenkov counting. The IC50 values were fitted from GraphPad Prism 6 using one site Nonlinear Regression.

S1PR4 = biological target: T3, S1PR4 (Homo sapiens, UniProt O95977); assay: competitive [^32P]S1P binding assay on cell membranes, S1PR4
T3 construct: purchased
T3 sequence (O95977 1-384): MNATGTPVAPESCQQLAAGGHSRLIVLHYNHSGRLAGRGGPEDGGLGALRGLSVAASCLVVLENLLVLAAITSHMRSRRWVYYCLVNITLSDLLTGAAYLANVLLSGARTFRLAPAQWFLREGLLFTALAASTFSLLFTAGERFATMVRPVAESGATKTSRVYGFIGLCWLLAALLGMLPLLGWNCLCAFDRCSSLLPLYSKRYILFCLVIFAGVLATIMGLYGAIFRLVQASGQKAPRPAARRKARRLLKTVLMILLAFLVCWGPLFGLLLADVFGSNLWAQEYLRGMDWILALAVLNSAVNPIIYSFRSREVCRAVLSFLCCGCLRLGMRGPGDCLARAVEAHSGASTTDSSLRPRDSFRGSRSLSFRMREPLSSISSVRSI
Method: as §1

S1PR3 = biological target: T4, S1PR3 (Homo sapiens, UniProt Q99500); assay: competitive [^32P]S1P binding assay on cell membranes, S1PR3
T4 construct: purchased
Method: as §1

S1PR5 = biological target: T5, S1PR5 (Homo sapiens, UniProt Q9H228); assay: competitive [^32P]S1P binding assay on cell membranes, S1PR5
T5 construct: purchased

[2] = biodistribution study of [^11C]2c in EAE and control mice; type: in vivo, female SJL mice; details: for tissue uptake: female, SJL, mouse, brain, other: injection
Method: A biodistribution study was conducted in female SJL EAE mice and control mice (at 9 weeks, n=4 for each group) to determine the tissue accumulation of the radiotracer post-injection of the dose.

[3] = [^32P]S1P competition, read-out: IC50 value, S1PR2 binding
[4] = [^32P]S1P competition, Table 2, read-out: IC50 S1PR2

T5 sequence (Q9H228 whole entry): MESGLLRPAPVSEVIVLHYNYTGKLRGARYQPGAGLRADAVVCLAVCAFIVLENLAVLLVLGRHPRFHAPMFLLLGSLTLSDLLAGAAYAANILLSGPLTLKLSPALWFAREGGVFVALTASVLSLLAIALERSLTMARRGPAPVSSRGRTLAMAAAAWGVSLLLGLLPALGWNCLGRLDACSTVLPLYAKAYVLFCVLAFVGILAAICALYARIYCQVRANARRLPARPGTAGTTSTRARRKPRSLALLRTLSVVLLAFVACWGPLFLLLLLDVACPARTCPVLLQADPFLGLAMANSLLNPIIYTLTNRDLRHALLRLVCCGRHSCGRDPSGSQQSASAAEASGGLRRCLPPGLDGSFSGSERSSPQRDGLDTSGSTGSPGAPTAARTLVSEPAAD
T1 sequence (O95136 whole entry): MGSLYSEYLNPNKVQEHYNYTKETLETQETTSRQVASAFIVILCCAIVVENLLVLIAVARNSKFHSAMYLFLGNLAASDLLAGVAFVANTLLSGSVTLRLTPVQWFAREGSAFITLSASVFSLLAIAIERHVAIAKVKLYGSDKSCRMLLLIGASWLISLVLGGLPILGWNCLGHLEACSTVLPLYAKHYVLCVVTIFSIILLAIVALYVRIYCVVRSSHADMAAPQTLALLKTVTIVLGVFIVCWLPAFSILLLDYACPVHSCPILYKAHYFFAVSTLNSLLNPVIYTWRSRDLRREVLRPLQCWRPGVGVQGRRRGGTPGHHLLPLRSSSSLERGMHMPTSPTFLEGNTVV
T4 sequence (Q99500 whole entry): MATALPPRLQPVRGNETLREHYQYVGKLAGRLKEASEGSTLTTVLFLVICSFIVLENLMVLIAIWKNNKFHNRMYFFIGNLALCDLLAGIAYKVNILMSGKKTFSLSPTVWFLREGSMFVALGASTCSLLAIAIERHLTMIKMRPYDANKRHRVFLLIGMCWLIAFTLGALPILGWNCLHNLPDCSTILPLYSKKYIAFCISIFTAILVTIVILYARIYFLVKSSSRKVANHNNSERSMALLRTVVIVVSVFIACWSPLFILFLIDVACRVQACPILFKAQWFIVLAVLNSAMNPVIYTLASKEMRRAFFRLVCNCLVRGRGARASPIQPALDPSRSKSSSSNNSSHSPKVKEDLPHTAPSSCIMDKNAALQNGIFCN
T2 sequence (P21453 whole entry): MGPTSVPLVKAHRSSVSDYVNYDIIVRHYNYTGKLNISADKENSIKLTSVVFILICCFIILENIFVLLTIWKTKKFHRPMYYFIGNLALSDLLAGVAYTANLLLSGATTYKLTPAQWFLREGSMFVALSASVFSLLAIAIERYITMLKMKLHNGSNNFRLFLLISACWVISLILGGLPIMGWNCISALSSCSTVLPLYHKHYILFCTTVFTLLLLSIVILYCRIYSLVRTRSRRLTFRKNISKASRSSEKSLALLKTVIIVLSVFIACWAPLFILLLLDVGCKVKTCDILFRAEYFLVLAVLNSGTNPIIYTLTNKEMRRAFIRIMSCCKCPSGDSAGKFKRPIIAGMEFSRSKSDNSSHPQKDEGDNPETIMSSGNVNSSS

COc1ccc(NC(=O)Cn2c(=O)c3ccccc3n(CC(=O)Nc3cc(Cl)c(OC)cc3OC)c2=O)cc1 [Compound 2c]
EAE disease course (clinical score) ([1]; 1 mg/kg, p<0.0002): significant improvement of EAE disease course
EAE disease course (clinical score) ([1]; 5 mg/kg, p<0.0001): significant improvement of EAE disease course
IC50 (S1PR2; [3]): 5.7 ± 0.5 nM

CCC(CC)CC1(O)CCN(C(=O)Nc2cc(Oc3ccc(F)cc3)cc(C(F)(F)F)c2)CC1 [Compound 17c, 4-(2-Ethylbutyl)-N-(3-(4-fluorophenoxy)-5-(trifluoromethyl)phenyl)-4-hydroxypiperidine-1-carboxamide]
melting point: 108 to 111 °C
IC50 (S1PR2; [^32P]S1P competition, IC50 ± SD, second Table 1, read-out: S2PR2 IC50): 362 nM

CCC(CC)CC1(O)CCN(C(=O)Nc2cc(Oc3ccc(F)cc3)cc(Oc3ccc(OC)cc3)c2)CC1 [Compound 28a, 4-(2-Ethylbutyl)-N-(3-(4-fluorophenoxy)-5-(4-methoxyphenoxy)phenyl)-4-hydroxypiperidine-1-carboxamide]
melting point: 79 to 80 °C
IC50 (S1PR2; [3]): 188 nM

CCC(CC)CC1(O)CCN(C(=O)Nc2cc(Oc3ccc(F)cc3)cc(Oc3ccc4c(c3)CCN(C)C4=O)c2)CC1 [Compound 28b, 4-(2-Ethylbutyl)-N-(3-(4-fluorophenoxy)-5-((2-methyl-1-oxo-1,2,3,4-tetrahydroisoquinolin-6-yl)oxy)phenyl)-4-hydroxypiperidine-1-carboxamide]
IC50 (S1PR1): > 1000 nM
IC50 (S1PR4): > 1000 nM
melting point: 80 to 82 °C
IC50 (S1PR3): > 1000 nM
IC50 (S1PR5): > 1000 nM

CCC(CC)CC1(O)CCN(C(=O)Nc2cc(Oc3ccc(F)cc3)cc(Oc3ccc4c(c3)CCNC4=O)c2)CC1 [Compound 28c, 4-(2-Ethylbutyl)-N-(3-(4-fluorophenoxy)-5-((1-oxo-1,2,3,4-tetrahydroisoquinolin-6-yl)oxy)phenyl)-4-hydroxypiperidine-1-carboxamide]
IC50 (S1PR1): > 1000 nM
IC50 (S1PR4): > 1000 nM
melting point: 81 to 83 °C
IC50 (S1PR3): > 1000 nM
IC50 (S1PR5): > 1000 nM

CCC(CC)CC1(O)CCN(C(=O)Nc2cc(Oc3ccc(F)cc3)cc(Oc3ccc(C(=O)NCCF)cc3)c2)CC1 [Compound 28d, 4-(2-Ethylbutyl)-N-(3-(4-((2-fluoroethyl)carbamoyl)phenoxy)-5-(4-fluorophenoxy)phenyl)-4-hydroxypiperidine-1-carboxamide]
IC50 (S1PR1): > 1000 nM
IC50 (S1PR4): > 1000 nM
melting point: 79 to 82 °C
IC50 (S1PR2; [4]): 66.7 ± 7.8 nM
IC50 (S1PR3): > 1000 nM
IC50 (S1PR5): > 1000 nM

CCC(CC)CC1(O)CCN(C(=O)Nc2cc(Oc3ccc(F)cc3)cc(Sc3ccc(S(C)(=O)=O)cc3)c2)CC1 [Compound 28e, 4-(2-Ethylbutyl)-N-(3-(4-fluorophenoxy)-5-((4-(methylsulfonyl)phenyl)thio)phenyl)-4-hydroxypiperidine-1-carboxamide]
IC50 (S1PR1): > 1000 nM
IC50 (S1PR4): > 1000 nM
melting point: 78 to 80 °C
IC50 (S1PR2; [3]): 14.6 nM
IC50 (S1PR3): > 1000 nM
IC50 (S1PR5): > 1000 nM

CC(C)CC1(O)CCN(C(=O)Nc2cc(Oc3ccc(F)cc3)cc(Oc3ccc(C(=O)NCCF)cc3)c2)CC1 [Compound 28f, N-(3-(4-((2-fluoroethyl)carbamoyl)phenoxy)-5-(4-fluorophenoxy)phenyl)-4-hydroxy-4-isobutylpiperidine-1-carboxamide]
melting point: 81 to 83 °C

CC(C)CC1(O)CCN(C(=O)Nc2cc(Oc3ccc(F)cc3)cc(Sc3ccc(S(C)(=O)=O)cc3)c2)CC1 [Compound 28g, N-(3-(4-Fluorophenoxy)-5-((4-(methylsulfonyl)phenyl)-thio)phenyl)-4-hydroxy-4-isobutylpiperidine-1-carboxamide]
IC50 (S1PR1): > 1000 nM
IC50 (S1PR4): > 1000 nM
melting point: 79 to 81 °C
IC50 (S1PR2; [4]): 38.5 ± 6.3 nM
IC50 (S1PR3): > 1000 nM
IC50 (S1PR5): > 1000 nM

Cc1nn(C)c2nc(NNC(=O)Nc3cc(Cl)nc(Cl)c3)cc(C(C)C)c12 [JTE-013, reference compound]
IC50 (S1PR1; [^32P]S1P competition, Table 2): > 1000 nM
IC50 (S1PR4; [^32P]S1P competition, Table 2): > 1000 nM
IC50 (S1PR3; [^32P]S1P competition, Table 2): > 1000 nM
IC50 (S1PR5; [^32P]S1P competition, Table 2): > 1000 nM

CCC(CC)CC1(O)CCN(C(=O)Nc2cc(Oc3ccc(F)cc3)cc(Oc3ccc4c(c3)CCN(C)C4=O)c2)CC1 [TZ57-089]
IC50 (S1PR1; Table 5): > 1000 nM
IC50 (S1PR2; Table 5, read-out: IC50 S1PR2): 73 ± 11 nM
IC50 (S1PR3; Table 5): > 1000 nM

CCC(CC)CC1(O)CCN(C(=O)Nc2cc(Oc3ccc(F)cc3)cc(Oc3ccc4c(c3)CCNC4=O)c2)CC1 [TZ57-090]
IC50 (S1PR1; Table 5): > 1000 nM
IC50 (S1PR2; Table 5, read-out: IC50 S1PR2): 30 ± 4 nM
IC50 (S1PR3; Table 5): > 1000 nM

COc1ccc(NC(=O)Cn2c(=O)c3ccccc3n(CC(=O)Nc3cc(Cl)c(OC)cc3OC)c2=O)cc1 [TZ59-104, N-(5-Chloro-2,4-dimethoxyphenyl)-2-(3-(2-((4-methoxyphenyl)amino)-2-oxoethyl)-2,4-dioxo-3,4-dihydroquinazolin-1(2H)-yl)acetamide]
IC50 (S1PR1; Table 5): > 1000 nM
IC50 (S1PR2; Table 5, read-out: IC50 S1PR2): 5.7 ± 0.5 nM
IC50 (S1PR3; Table 5): > 1000 nM

COc1cc(OC)c(NC(=O)Cn2c(=O)n(CC(=O)Nc3ccccc3OC)c(=O)c3ccccc32)cc1Cl [TZ59-134, N-(5-Chloro-2,4-dimethoxyphenyl)-2-(3-(2-((2-methoxyphenyl)amino)-2-oxoethyl)-2,4-dioxo-3,4-dihydroquinazolin-1(2H)-yl)acetamide]
IC50 (S1PR1; Table 5): > 1000 nM
IC50 (S1PR4; Table 5): > 1000 nM
IC50 (S1PR2; Table 5, read-out: IC50 S1PR2): 6.3 ± 0.9 nM
IC50 (S1PR3; Table 5): > 1000 nM
IC50 (S1PR5; Table 5): > 1000 nM

COc1ccc(NC(=O)Cn2c(=O)c3ccccc3n(CC(=O)Nc3cc(Cl)c(OC)cc3OC)c2=O)cc1 [[^11C]2c]
uptake in brain, blood, heart, lung, and pancreas ([2]; EAE mice versus control): increased uptake
tissue uptake ([2]; EAE mice): 0.699 %ID/g
tissue uptake ([2]; control mice): 0.452 %ID/g
